Results taken from publication PMC4750701, “Role of Mitochondrial RNA Polymerase in the Toxicity of Nucleotide Inhibitors of Hepatitis C Virus” (Antimicrobial Agents and Chemotherapy, 2016).
Values belong to the compound of their own block, whether it stands above or below them.

How the values were obtained:
[1] = Bone marrow erythroid progenitor colony assay, 14 days; format: cell-based, human; conditions: human, human bone marrow erythroid progenitors, read-out: Mean CC50 ± SD in Bone marrow cells Erythroid
[2] = Bone marrow myeloid progenitor colony assay, 14 days; format: cell-based, human; conditions: human, human bone marrow myeloid progenitors, read-out: Mean CC50 ± SD in Bone marrow cells Myeloid
[3] = tested on: mitochondrial DNA-encoded cytochrome c oxidase (COX-1); experiment: Mitochondrial protein synthesis assay (COX-1, MitoBiogenesis in-cell ELISA) in PC-3 cells; format: cell-based, human; conditions: PC-3 cells
Description: (§1) PC-3 cells were treated with the compounds for 5 days and analyzed with the MitoTox MitoBiogenesis in-cell enzyme-linked immunosorbent assay (ELISA) kit (MitoSciences/Abcam, Eugene, Oregon) as described previously ([13]). The assay uses quantitative immunocytochemistry to measure the protein levels of nuclear DNA-encoded succinate dehydrogenase (SDH-A; complex II [succinate dehydrogenase]) and mitochondrial DNA-encoded cytochrome c oxidase (COX-1; complex IV [cytochrome c oxidase]) in cultured cells.

[4] = tested on: mitochondrial DNA-encoded cytochrome c oxidase (COX-1; complex IV) protein level; experiment: as above; format: cell-based, human; conditions: human; PC-3 cells, COX-1, 5 days; read-out: Mean CC50 ± SD causing Mitochondrial toxicity: Protein synthesis
Description: as §1

[5] = tested on: nuclear DNA-encoded succinate dehydrogenase (SDH-A; complex II) protein level; experiment: Nuclear protein synthesis (SDH-A, MitoBiogenesis in-cell ELISA) in PC-3 cells; format: cell-based, human; conditions: human, read-out: Mean CC50 ± SD causing General cellular toxicity: Protein synthesis
Description: as §1

[6] = Cytotoxicity in quiescent PBMCs, 5 days; conditions: human, quiescent PBMCs
[7] = Cytotoxicity in stimulated PBMCs, 5 days; conditions: human, stimulated PBMCs
Description: Human peripheral blood mononuclear cells (PBMCs) were isolated from human buffy coats obtained from healthy volunteers (Stanford Blood Bank, Palo Alto, CA) using standard Ficoll separation and stimulated as described elsewhere ([13]) and were tested at both quiescent and stimulated stages. Quiescent PBMCs were stimulated with 10 units per ml of recombinant human interleukin 2 (hIL-2) and 1 μg per ml phytohemagglutinin P (PHA-P) for 48 h prior to drug treatment.
(§4) All cells were cultured at 37°C in a 5% CO2 incubator with 90% humidity unless noted otherwise. […] All cells were treated with the various compounds for 5 days, except for human erythroid and myeloid progenitors, which were treated for 14 days. After the incubation period, cell viability was measured by the addition of CellTiter Glo viability reagents (Promega, Madison, WI). The luminescence signal was quantified on an Envision luminescence plate reader (PerkinElmer, Waltham, MA) after incubation of the reagents and cells for 10 min at room temperature. […] CC50 values were calculated as the average of the results of three or four independent experiments.
Human peripheral blood mononuclear cells (PBMCs) were isolated from human buffy coats
obtained from normal healthy volunteers (Stanford Medical School Blood Center, Palo Alto,
CA). Total PBMCs were isolated from buffy coats using standard Ficoll separation and sterile
cellular isolation techniques performed in a bio-safety cabinet (1). Except where noted, the
procedure was carried out at room temperature. The final PBMCs pellet was resuspended in
Logan, UT), penicillin 100 units/mL and streptomycin 100 µg/mL (Gibco). For quiescent
PBMCs cultures, total cells were seeded in 96-well plates at a density of 1 x 10^6 cells per well, followed by immediate drug treatment. Stimulated PBMCs cultures were set up by seeding the freshly isolated PBMCs in T-175cm2 tissue culture flasks in 100 mL of RPMI containing the same components as the ones used for the quiescent PBMCs but with the addition of 10 units per mL of recombinant human interleukin-2 (hIL-2, Roche, Indianapolis, IN), and 1 µg per mL phytohemagglutinin-P (PHA-P, Sigma-Aldrich, St. Louis, MO) at density of 2  10^6 cells per mL for 48 hours at 37C in a 5% CO2 incubator with 90% humidity, prior to drug treatment.

[8] = Cytotoxicity in MT-4 T-cells, 5-day treatment; conditions: human, MT-4 cells
Description: Primary human hepatocytes were from Bioreclamation IVT (Westbury, NY) or Life Technologies (Carlsbad, CA).
as §4

[9] = Cytotoxicity in MRC5 fibroblasts, 5-day treatment; conditions: human, MRC5 fibroblasts
[10] = Cytotoxicity in primary human hepatocytes, 5 days; conditions: human, primary human hepatocytes
[11] = Cytotoxicity / ATP level in PC-3 cells, 5-day treatment; conditions: human, PC-3 cells
[12] = Cytotoxicity in HepG2 (galactose) cells, 5-day treatment; conditions: human, HepG2 cells (galactose)
Description: as §4
Cell Culture and Cytotoxicity Studies
(§5) The Huh-7 cells were maintained in growth medium containing Dulbecco's Modified Eagle
(§6) Medium (DMEM, Cellgro) supplemented with 1% Nonessential Amino Acids (NEAA, Cellgro,
(§7) Manassas, VA), 10% fetal bovine serum (FBS, HyClone, Logan, UT) and 1% Penicillin-
(§8) streptomycin-glutamate (PSG, Invitrogen, Carlsbad, CA). The cells were passaged twice weekly
(§9) and maintained at 90% confluence densities.
(§10) The HepG2 cells were maintained in Eagle’s Minimum Essential Medium (EMEM) from ATCC
(§11) (Manassas, VA) supplemented with 10% FBS, 100 units/mL penicillin and 100 µg/mL
(§12) streptomycin (P/S) (Gibco). The cells were passaged twice weekly and maintained at 90%
(§13) The PC-3 cells were maintained in Kaighn’s F12 medium (Gibco, Carlsbad, CA) supplemented
(§14) with 10% FBS (HyClone, Logan, UT), 100 units/mL penicillin and 100 µg/mL streptomycin
(§15) (P/S) (Gibco). The cells were passaged twice weekly and maintained at 90% confluence. Cells
(§16) between passages 4 and 15 were used in the assays.
(§17) The fibroblast cell line MRC-5 cell line derived from normal lung tissue, was purchased from
(§18) ATCC (Manassas, VA) and cultured in Minimum Essential Medium (MEM) (Cellgro, Manassas,
(§19) VA) supplemented with 10% FBS (HyClone, Logan, UT) and 1% PSG (Invitrogen). The cells
(§20) were passaged twice weekly and maintained at 90% confluence densities.

[13] = Cytotoxicity in Huh7 cells, 5-day treatment (CellTiter Glo); conditions: human, Huh-7 cells
Description: as §4
Cell Culture and Cytotoxicity Studies
as §5, §6, §7, §8, §9, §10, §11, §12, §13, §14, §15, §16, §17, §18, §19, §20

[14] = tested on: mitochondrial spare respiratory capacity in PC-3 cells; experiment: Oxygen consumption rate / spare respiratory capacity in PC-3 cells; conditions: PC-3 cells, 3-day treatments
[15] = tested on: mitochondrial spare respiratory capacity; experiment: as above; conditions: human, pH 7.4
recombinant human PolRMT = target: T1, recombinant human PolRMT (Homo sapiens, UniProt O00411); experiment: Single-nucleotide incorporation by PolRMT; format: biochemical; conditions: triphosphate form, fixed saturating concentration 500 μM, rate relative to corresponding natural rNTP
T1 construct: purchased Enzymax (Lexington, KY)
T1 sequence (O00411 42-1230): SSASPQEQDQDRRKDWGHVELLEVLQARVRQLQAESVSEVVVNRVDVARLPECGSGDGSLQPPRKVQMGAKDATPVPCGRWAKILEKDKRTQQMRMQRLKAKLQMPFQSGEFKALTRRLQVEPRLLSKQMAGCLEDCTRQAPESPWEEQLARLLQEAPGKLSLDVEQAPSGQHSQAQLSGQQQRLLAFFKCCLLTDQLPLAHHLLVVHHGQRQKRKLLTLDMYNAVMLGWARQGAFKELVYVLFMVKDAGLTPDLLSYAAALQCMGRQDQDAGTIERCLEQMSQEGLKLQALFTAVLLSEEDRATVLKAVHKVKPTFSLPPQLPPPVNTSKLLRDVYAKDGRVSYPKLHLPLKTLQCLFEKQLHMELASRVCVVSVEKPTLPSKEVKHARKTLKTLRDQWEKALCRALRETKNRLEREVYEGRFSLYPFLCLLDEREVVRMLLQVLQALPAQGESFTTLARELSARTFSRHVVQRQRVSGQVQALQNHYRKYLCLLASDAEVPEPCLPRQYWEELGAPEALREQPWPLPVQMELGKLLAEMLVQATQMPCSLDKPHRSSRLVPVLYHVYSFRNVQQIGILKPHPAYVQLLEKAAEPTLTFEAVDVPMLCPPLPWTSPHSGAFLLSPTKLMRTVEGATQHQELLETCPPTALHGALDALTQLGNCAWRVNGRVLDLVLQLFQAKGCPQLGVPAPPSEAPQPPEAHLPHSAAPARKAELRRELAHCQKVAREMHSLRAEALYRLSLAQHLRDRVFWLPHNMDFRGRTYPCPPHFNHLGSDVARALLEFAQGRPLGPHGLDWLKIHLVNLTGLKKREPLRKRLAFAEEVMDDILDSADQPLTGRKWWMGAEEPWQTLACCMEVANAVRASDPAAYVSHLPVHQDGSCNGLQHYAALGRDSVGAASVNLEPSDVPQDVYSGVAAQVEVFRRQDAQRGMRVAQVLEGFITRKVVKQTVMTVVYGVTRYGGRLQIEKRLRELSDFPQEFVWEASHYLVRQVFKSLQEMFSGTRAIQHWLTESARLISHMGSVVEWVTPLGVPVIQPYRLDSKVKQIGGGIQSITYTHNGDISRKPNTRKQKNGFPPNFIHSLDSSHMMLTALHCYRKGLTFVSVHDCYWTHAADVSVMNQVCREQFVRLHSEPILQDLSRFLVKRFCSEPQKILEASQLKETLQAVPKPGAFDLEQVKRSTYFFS
Description: (§2) Activated fish sperm DNA was purchased from USB/Affymetrix (Santa Clara, CA) and used as a template for the DNA polymerases alpha, beta, and gamma. The DNA template used in the RNA Pol II assay was a 1,188-bp restriction fragment containing the cytomegalovirus (CMV) immediate early promoter (Promega, Madison, WI). The RNA and DNA oligonucleotides used in the mitochondrial RNA polymerase assay (see Table S1 in the supplemental material) were synthesized and PAGE purified by Thermo Scientific/Dharmacon (Lafayette, CO). RNA primer R12 was 5′-^32P-phosphorylated with [γ-^32P]ATP (3,000 Ci/mmol) and T4 kinase (New England BioLabs, Ipswich, MA).
(§3) Human DNA polymerase alpha, isolated from HeLa cell extracts, was from CHIMERx (Madison, WI). Recombinant human DNA polymerase beta, expressed in E. coli, was a gift from Zucai Suo at The Ohio State University. Recombinant human DNA polymerase gamma (including both the large subunit and the small subunit) was cloned, expressed, and purified from insect cells by Gilead Sciences (Foster City, CA) ([13]). RNA PolII was purchased as part of the HeLaScribe nuclear extract in vitro transcription system kit from Promega (Madison, WI). The recombinant human PolRMT and the transcription factors mitochondrial transcription factor A (mtTFA) and B2 (mtTFB2) were purchased from Enzymax (Lexington, KY). FLAG epitope-tagged RNA PolI and PolIII complexes were isolated from rat NSN1 cells and HeLa cells, respectively ([17], [18]). The inhibition of DNA polymerases alpha, beta, and gamma, PolRMT, and PolII and the rate of single-nucleotide incorporation by PolRMT have been described previously in detail ([12], [13], [19]). Inhibition of RNA PolI and PolIII was studied using published methods ([20], [21]). All concentrations were final unless noted otherwise. For the RNA PolI inhibition assay, a reaction mixture containing 50 mM HEPES (pH 7.9), 20% glycerol, 100 mM KCl, 1 mM dithiothreitol (DTT), 50 μg/ml calf thymus DNA, 4 mM MgCl2, 5 or 80 μM UTP (0.25 μl of [5,6-^3H]UTP, >25 Ci/mmol; PerkinElmer), 1 mM noncompeting NTP, competing NTP (5 μM for GTP, CTP, and UTP and 25 μM for ATP), and various concentrations (0 to 500 μM) of NTP analogs was preincubated at 30°C for 5 min. […] After incubation at 30°C for 20 min to 1 h, the reactions were terminated by pipetting the mixtures onto DEAE-cellulose discs (DE81; Whatman), and the products analyzed as described previously ([20], [21]).
Supplementary Table S1: RNA primer and templates used in mitochondrial RNA
polymerase single nucleotide incorporation assay.
Oligonucleotides Sequencesa
Primer (R12) 5’-[…]-3’
Templates (D18) 3’-[…]-5’
a The bold letter in the template sequences denotes the bases that pair with the incoming NTP. […]

RNA PolII = target: T2, RNA PolII (Homo sapiens, UniProt P24928+P30876); experiment: Inhibition of RNA PolII (HeLaScribe nuclear extract transcription); format: biochemical; conditions: nucleotide analogs (Table 6); read-out: Mean IC50 ± SD for RNA PolII
T2 construct: purchased as part of the HeLaScribe nuclear extract in vitro transcription system kit; purchased Promega (Madison, WI); host or cells: HeLa nuclear extract (endogenous enzyme)
Description: as §2, §3

RNA PolI = target: T3, RNA PolI (Rattus norvegicus, UniProt O54889); experiment: RNA PolI inhibition assay; format: biochemical; conditions: NTP analogs 0 to 500 μM; read-out: Mean IC50 ± SD for RNA PolI
T3 construct: complexes were isolated from rat NSN1 cells and HeLa cells, respectively; made in house; host or cells: rat NSN1 cells expressing a FLAG-tagged Pol I subunit
T3 sequence (O54889 whole entry): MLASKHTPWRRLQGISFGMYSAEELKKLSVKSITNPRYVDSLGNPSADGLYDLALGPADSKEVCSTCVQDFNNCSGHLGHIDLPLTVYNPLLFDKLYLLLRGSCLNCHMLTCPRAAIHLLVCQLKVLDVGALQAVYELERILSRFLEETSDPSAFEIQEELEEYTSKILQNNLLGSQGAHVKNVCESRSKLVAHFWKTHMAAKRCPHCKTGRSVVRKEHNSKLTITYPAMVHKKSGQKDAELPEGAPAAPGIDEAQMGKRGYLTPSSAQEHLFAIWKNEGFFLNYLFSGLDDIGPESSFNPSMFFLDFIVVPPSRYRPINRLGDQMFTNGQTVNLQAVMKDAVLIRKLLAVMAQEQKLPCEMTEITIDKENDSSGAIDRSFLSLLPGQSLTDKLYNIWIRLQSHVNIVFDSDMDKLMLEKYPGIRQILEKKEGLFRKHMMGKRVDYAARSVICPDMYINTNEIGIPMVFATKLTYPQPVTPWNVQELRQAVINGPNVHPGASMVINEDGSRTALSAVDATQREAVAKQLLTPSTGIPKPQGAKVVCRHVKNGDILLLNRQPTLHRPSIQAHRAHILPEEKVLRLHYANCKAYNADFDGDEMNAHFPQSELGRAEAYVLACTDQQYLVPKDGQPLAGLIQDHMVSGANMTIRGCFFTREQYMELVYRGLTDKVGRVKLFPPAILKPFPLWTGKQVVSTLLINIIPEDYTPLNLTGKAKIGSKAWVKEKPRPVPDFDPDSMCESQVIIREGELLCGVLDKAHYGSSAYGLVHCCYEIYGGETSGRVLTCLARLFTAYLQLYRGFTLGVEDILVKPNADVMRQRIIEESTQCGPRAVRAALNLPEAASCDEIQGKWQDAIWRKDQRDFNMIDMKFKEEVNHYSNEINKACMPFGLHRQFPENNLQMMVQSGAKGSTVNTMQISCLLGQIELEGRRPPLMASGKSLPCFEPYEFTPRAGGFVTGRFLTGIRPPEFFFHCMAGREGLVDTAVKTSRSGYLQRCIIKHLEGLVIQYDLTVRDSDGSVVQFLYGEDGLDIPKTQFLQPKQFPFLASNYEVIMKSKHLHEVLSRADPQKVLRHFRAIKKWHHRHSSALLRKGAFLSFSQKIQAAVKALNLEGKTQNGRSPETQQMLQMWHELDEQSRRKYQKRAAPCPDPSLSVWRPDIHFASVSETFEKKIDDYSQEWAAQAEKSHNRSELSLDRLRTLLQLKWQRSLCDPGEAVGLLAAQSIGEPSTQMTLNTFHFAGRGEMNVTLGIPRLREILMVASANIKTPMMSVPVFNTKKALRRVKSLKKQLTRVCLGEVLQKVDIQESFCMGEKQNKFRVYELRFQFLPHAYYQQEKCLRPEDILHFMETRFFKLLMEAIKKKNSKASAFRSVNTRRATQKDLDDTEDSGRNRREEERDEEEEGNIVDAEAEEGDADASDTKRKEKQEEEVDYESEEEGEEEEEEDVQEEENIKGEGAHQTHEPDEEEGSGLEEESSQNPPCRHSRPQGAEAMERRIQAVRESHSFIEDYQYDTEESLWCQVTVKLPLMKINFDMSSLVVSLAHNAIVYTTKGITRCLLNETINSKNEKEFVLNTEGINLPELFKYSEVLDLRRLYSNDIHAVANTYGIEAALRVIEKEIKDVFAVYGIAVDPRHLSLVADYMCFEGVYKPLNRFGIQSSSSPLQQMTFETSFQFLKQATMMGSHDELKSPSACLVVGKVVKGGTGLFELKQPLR
Description: as §3

RNA PolIII = target: T4, RNA PolIII (Homo sapiens, UniProt O14802+Q9NW08); experiment: RNA PolIII inhibition assay; format: biochemical; conditions: competing NTP 100 μM CTP and GTP, 500 μM ATP; read-out: Mean IC50 ± SD for RNA PolIII
T4 construct: complexes were isolated from rat NSN1 cells and HeLa cells, respectively; made in house; host or cells: HeLa cells expressing a FLAG-tagged Pol III subunit
Description: as §3
The RNA PolIII inhibition assay was conducted in a similar manner, except that the concentrations of the competing NTP were modified to 100 μM for CTP and GTP and 500 μM for ATP to compensate for the low assay signal at lower NTP concentrations.

[16] = target: T5, Recombinant human DNA polymerase beta (Homo sapiens, UniProt P06746); experiment: Inhibition of human DNA polymerase beta; format: biochemical; conditions: triphosphate form of the compound tested; read-out: Mean IC50 ± SD for DNA Pol β
T5 construct: host or cells: E. coli
Description: as §2, §3

[17] = target: T6, Recombinant human DNA polymerase gamma (Homo sapiens, UniProt P54098); experiment: Inhibition of human DNA polymerase gamma; format: biochemical; conditions: triphosphate form of the compound tested; read-out: Mean IC50 ± SD for DNA Pol γ
T6 construct: made in house; host or cells: insect cells
T6 sequence (P54098 1-1239): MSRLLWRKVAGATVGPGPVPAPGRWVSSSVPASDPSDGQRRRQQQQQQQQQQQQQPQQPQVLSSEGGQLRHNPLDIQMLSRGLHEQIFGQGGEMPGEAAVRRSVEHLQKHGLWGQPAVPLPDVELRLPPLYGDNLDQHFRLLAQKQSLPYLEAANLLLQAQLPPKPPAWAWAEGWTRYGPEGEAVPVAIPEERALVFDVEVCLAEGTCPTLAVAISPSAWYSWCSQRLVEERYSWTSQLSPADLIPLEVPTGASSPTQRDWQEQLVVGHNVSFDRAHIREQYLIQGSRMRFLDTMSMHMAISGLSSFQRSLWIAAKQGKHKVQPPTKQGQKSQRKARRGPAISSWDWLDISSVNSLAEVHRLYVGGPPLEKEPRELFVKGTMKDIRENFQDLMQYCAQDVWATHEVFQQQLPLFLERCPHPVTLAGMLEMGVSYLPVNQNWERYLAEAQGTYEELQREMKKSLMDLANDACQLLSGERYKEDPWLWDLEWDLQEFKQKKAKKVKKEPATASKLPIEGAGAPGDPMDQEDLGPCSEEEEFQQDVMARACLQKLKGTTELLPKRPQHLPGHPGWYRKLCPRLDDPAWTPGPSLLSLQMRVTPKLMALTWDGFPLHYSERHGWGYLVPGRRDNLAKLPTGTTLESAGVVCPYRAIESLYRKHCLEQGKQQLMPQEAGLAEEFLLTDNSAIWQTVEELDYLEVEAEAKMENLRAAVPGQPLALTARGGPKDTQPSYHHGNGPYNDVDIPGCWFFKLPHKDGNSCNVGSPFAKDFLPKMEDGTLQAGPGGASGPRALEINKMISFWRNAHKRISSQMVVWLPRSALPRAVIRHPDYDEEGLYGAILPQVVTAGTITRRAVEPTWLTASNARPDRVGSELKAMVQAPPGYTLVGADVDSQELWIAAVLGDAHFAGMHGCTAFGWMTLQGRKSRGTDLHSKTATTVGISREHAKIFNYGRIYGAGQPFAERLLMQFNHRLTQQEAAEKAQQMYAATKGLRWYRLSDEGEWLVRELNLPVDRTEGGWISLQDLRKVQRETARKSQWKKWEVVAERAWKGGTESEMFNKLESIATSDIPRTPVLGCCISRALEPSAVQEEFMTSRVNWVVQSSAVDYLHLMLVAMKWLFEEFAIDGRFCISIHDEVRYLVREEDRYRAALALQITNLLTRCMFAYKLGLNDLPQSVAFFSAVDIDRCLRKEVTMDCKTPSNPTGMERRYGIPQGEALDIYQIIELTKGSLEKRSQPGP
T6 sequence (Q9UHN1 26-485 partner limits assumed): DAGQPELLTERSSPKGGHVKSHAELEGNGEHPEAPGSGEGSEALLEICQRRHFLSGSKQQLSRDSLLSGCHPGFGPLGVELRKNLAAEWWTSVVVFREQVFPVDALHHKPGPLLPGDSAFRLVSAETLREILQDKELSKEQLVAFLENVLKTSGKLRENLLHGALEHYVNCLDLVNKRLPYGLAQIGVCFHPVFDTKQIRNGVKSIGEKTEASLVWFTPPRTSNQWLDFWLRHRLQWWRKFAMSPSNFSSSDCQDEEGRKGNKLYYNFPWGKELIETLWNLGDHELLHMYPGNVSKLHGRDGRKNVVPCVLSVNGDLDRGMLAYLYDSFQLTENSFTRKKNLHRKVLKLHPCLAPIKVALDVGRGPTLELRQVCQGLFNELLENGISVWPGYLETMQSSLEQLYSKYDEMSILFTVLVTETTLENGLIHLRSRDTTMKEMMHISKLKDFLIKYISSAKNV
Description: as §2, §3

Structure (SMILES): O=C(N[C@H](CO)[C@H](O)c1ccc([N+](=O)[O-])cc1)C(Cl)Cl [Chloramphenicol]
CC50 at 14 days [1]: 82 ± 29 µM
CC50 at 14 days [2]: > 100 µM
selectivity of effect on COX-1 versus SDH-A and ATP levels ([3]; 5-day treatments): specifically inhibited COX-1 synthesis
CC50 at 5 days [4]: 2600 ± 600 nM
CC50 at 5 days [5]: > 50 µM
CC50 at 5 days [6]: > 100 µM
CC50 at 5 days [7]: > 100 µM
CC50 at 5 days [8]: > 89 µM
CC50 at 5 days [9]: > 89 µM
CC50 at 5 days [10]: > 100 µM
CC50 at 5 days [11]: 16 ± 3 µM
CC50 at 5 days [12]: > 89 µM
CC50 at 5 days [13]: > 89 µM
selectivity of effect on spare respiratory capacity versus DNA and ATP levels [14]: specifically inhibited mitochondrial spare respiratory capacity
CC50 at 3 days [15]: 4.5 ± 1.5 µM

Structure (SMILES): C[C@@]1(O)[C@H](O)[C@@H](COP(=O)(O)OP(=O)(O)OP(=O)(O)O)O[C@H]1n1cnc2c(N)ncnc21 [2′CMeATP]
IC50 (RNA PolII): > 500 µM
IC50 (RNA PolI): 190 ± 40 µM
IC50 (RNA PolIII): > 500 µM

Structure (SMILES): C[C@@]1(O)[C@H](O)[C@@H](COP(=O)(O)OP(=O)(O)OP(=O)(O)O)O[C@H]1n1ccc(N)nc1=O [2′CMeCTP]
IC50 (RNA PolII): > 500 µM
IC50 (RNA PolI): 260 ± 40 µM
IC50 (RNA PolIII): > 500 µM

Structure (SMILES): Cc1cn([C@H]2CC[C@@H](COP(=O)(O)OP(=O)(O)OP(=O)(O)O)O2)c(=O)[nH]c1=O [3′dTTP]
IC50 [16]: 1900 ± 800 nM
IC50 [17]: 1200 ± 600 nM

Now from value to compound:

Substrate incorporation (% of NTP [mean ± SD]) of PolRMT (recombinant human PolRMT): < 1 % of NTP
Structure (SMILES): CC(C)C(=O)OC[C@H]1O[C@@H](n2ccc(N)nc2=O)[C@](C)(F)[C@@H]1OC(=O)C(C)C [mericitabine]

effect on mitochondrial or nuclear protein synthesis or ATP level ([3]; 5-day treatment, 10 μM): no appreciable effect
Structure (SMILES): NC(=O)c1ncn([C@@H]2O[C@H](CO)[C@@H](O)[C@H]2O)n1 [RBV, ribavirin]
